According to US5089273A, “Ecteinascidins 729, 743, 745, 759A, 759B and 770” (priority 1990, dated 1992):
Converted amounts (≈) assume the structure as drawn. Like-named read-outs stand apart in the source and are kept apart here.

Key:
CV-1 cells = assay: Cytotoxic activity vs. CV-1 cells (disk zones of inhibition); format: cell-based; conditions: for zone of inhibition at 0.05 µg/disc / zone of inhibition at 0.1 µg/disc / zone of inhibition at 0.2 µg/disc / zone of inhibition at 0.4 µg/disc / zone of inhibition at 0.8 µg/disc / zone of inhibition at 1.6 µg/disc: Cercopithecidae, read-out: Zones of Inhibition
Procedure: (§1) The antimicrobial activities (vs. M. luteus) and the cytotoxic activities (vs. CV-1 cells) of the ecteinascidins and ecteinascidin 743 derivatives are shown in Table 1 and 2. […] All of the derivatives of ecteinascidin 743 that were prepared have antimicrobial and cytotoxic activities.

M. luteus = assay: Antimicrobial activity vs. M. luteus (disk zones of inhibition); format: cell-based; conditions: for times less potent than ecteinascidins 729 and 743: relative to ecteinascidins 729 and 743; for zone of inhibition at 0.1 µg/disc: 100 ng/6.35-mm disk; for zone of inhibition at 0.2 µg/disc: 200 ng/6.35-mm disk
Procedure: as §1

bacteria = assay: Antibacterial Activity (disk zone of inhibition, Example 4); format: cell-based
Text: | Zone of inhibition (mm)

Saccharomyces cerevisiae = assay: Antimicrobial Spectrum, zones of inhibition; format: cell-based; conditions: 5 μg/disk, 6.35-mm disk
P388 leukemia = assay: In vivo P388 mouse leukemia test
Text: Compounds of this invention are also active in vivo against P388 leukemia in mice. The P388 mouse leukemia test is described in detail in a publication by G. L. Neil et al., Cancer Treatment Reports, 63: 1971-1978 (1979).

Pseudomonas aeruginosa = assay: Antimicrobial Spectrum, zones of inhibition; format: cell-based; conditions: 5 μg/disk, 6.35-mm disk
Mycobacterium avium = assay: Antimicrobial Spectrum, zones of inhibition; format: cell-based; conditions: 5 μg/disk, 6.35-mm disk
Bacillus subtilis syn = assay: Antimicrobial Spectrum, zones of inhibition; format: cell-based; conditions: 5 μg/disk, 6.35-mm disk
Bacillus subtilis = assay: Antimicrobial Spectrum, zones of inhibition; format: cell-based; conditions: 5 μg/disk, 6.35-mm disk
Escherichia coli = assay: Antimicrobial Spectrum, zones of inhibition; format: cell-based; conditions: 5 μg/disk, 6.35-mm disk
Penicillium oxalicum = assay: Antimicrobial Spectrum, zones of inhibition; format: cell-based; conditions: 5 μg/disk, 6.35-mm disk
Klebsiella pneumoniae = assay: Antimicrobial Spectrum, zones of inhibition; format: cell-based; conditions: 5 μg/disk, 6.35-mm disk
Sarcina lutea sens. = assay: Antimicrobial Spectrum, zones of inhibition; format: cell-based; conditions: Micrococcus luteus; 5 μg/disk; 6.35-mm disk
[1] = test system: L1210 mouse leukemia cells; assay: L1210 Tube Dilution Assay; format: cell-based
Text: The L1210 tube dilution assay is described in detail in a publication by L. H. Li, et al., Cancer Research, 39:4816 (1979). ID50 and ID90 refer to the concentration of ecteinascidin needed to inhibit cell growth by […], respectively.

Staphylococcus aureus = assay: Antimicrobial Spectrum, zones of inhibition; format: cell-based; conditions: 5 μg/disk, 6.35-mm disk
[2] = Micrococcus luteus, 400 ng/6.35-mm disk
[3] = Micrococcus luteus, 800 ng/6.35-mm disk
[4] = Micrococcus luteus, 1600 ng/6.35-mm disk

COc1cc2c(cc1O)CCN[C@]21CS[C@@H]2c3c(OC(C)=O)c(C)c4c(c3[C@H](COC1=O)N1[C@@H]2[C@H]2c3c(cc(C)c(OC)c3O)C[C@@H]([C@@H]1C#N)N2C)OCO4 [Ecteinascidin 770]
zone of inhibition at 0.05 µg/disc (CV-1 cells; 50 ng/6.35-mm disk): 10 mm | zone of inhibition at 0.1 µg/disc (CV-1 cells; 100 ng/6.35-mm disk): 14 mm | zone of inhibition at 0.2 µg/disc (CV-1 cells; 200 ng/6.35-mm disk): 16 mm | zone of inhibition at 0.4 µg/disc (CV-1 cells; 400 ng/6.35-mm disk): 20 mm | zone of inhibition at 0.8 µg/disc (CV-1 cells; 800 ng/6.35-mm disk): 24 mm | zone of inhibition at 1.6 µg/disc (CV-1 cells; 1600 ng/6.35-mm disk): 25 mm | zone of inhibition at 0.4 µg/disc (M. luteus; [2]): 9 mm | zone of inhibition at 0.8 µg/disc (M. luteus; [3]): 12 mm | zone of inhibition at 1.6 µg/disc (M. luteus; [4]): 15 mm | times less potent than ecteinascidins 729 and 743 (M. luteus): four to eight times less potent | Zone of inhibition (bacteria; 0.1 μg/disk): trace | zone of inhibition at 1 µg/disc (bacteria; 1 μg/disk): 14 mm

COc1cc2c(cc1OC(=O)c1ccc(Br)cc1)CCN[C@]21CS[C@@H]2c3c(OC(C)=O)c(C)c4c(c3[C@H](COC1=O)N1[C@@H]2[C@H]2c3c(cc(C)c(OC)c3O)C[C@@H]([C@@H]1O)N2C)OCO4 [p-Bromobenzoyl, p-Bromobenzoylecteinascidin 743]
zone of inhibition at 0.2 µg/disc (CV-1 cells; 200 ng/6.35-mm disk): 10 mm | zone of inhibition at 0.4 µg/disc (CV-1 cells; 400 ng/6.35-mm disk): 12 mm | zone of inhibition at 0.8 µg/disc (CV-1 cells; 800 ng/6.35-mm disk): 16 mm | zone of inhibition at 1.6 µg/disc (CV-1 cells; 1600 ng/6.35-mm disk): 18 mm | zone of inhibition at 0.4 µg/disc (M. luteus; [2]): 8 mm | zone of inhibition at 0.8 µg/disc (M. luteus; [3]): 10 mm | zone of inhibition at 1.6 µg/disc (M. luteus; [4]): 12 mm

COc1cc2c(cc1OC)[C@@]1(CS[C@@H]3c4c(OC(C)=O)c(C)c5c(c4[C@H](COC1=O)N1[C@@H]3[C@H]3c4c(cc(C)c(OC)c4OC)C[C@@H]([C@@H]1O)N3C)OCO5)NCC2 [Di- -- O-methyl, Di-O-methylecteinascidin 743]
zone of inhibition at 0.05 µg/disc (CV-1 cells): 13 mm | zone of inhibition at 0.1 µg/disc (CV-1 cells): 15 mm | zone of inhibition at 0.2 µg/disc (CV-1 cells): 17 mm | zone of inhibition at 0.4 µg/disc (CV-1 cells): 13 mm | zone of inhibition at 0.8 µg/disc (CV-1 cells): 16 mm | zone of inhibition at 1.6 µg/disc (CV-1 cells): 18 mm | zone of inhibition at 0.8 µg/disc (M. luteus; [3]): 8 mm | zone of inhibition at 1.6 µg/disc (M. luteus; [4]): 11 mm

COc1cc2c(cc1O)CCN[C@]21CS[C@@H]2c3c(O)c(C)c4c(c3[C@H](COC1=O)N1[C@@H]2[C@H]2c3c(cc(C)c(OC)c3O)C[C@@H]([C@@H]1O)N2C)OCO4 [Deacetyl, Deacetylecteinascidin 743]
zone of inhibition at 0.4 µg/disc (CV-1 cells; 400 ng/6.35-mm disk): 11 mm | zone of inhibition at 0.8 µg/disc (CV-1 cells; 800 ng/6.35-mm disk): 15 mm | zone of inhibition at 1.6 µg/disc (CV-1 cells; 1600 ng/6.35-mm disk): 16 mm | zone of inhibition at 0.1 µg/disc (M. luteus; Micrococcus luteus): 8 mm | zone of inhibition at 0.2 µg/disc (M. luteus; Micrococcus luteus): 10 mm | zone of inhibition at 0.4 µg/disc (M. luteus; [2]): 12 mm | zone of inhibition at 0.8 µg/disc (M. luteus; [3]): 14 mm | zone of inhibition at 1.6 µg/disc (M. luteus; [4]): 16 mm

COc1cc2c(cc1O)CCN[C@]21C[S+]([O-])[C@@H]2c3c(OC(C)=O)c(C)c4c(c3[C@H](COC1=O)N1[C@H]2[C@H]2c3c(cc(C)c(OC)c3O)C[C@@H]([C@H]1O)N2C)OCO4 (some centres unmarked) [Ecteinascidin 759B]
Zones of Inhibition (CV-1 cells; 100 ng/6.35-mm disk): 11 mm | Zones of Inhibition (CV-1 cells; 200 ng/6.35-mm disk): 13 mm | Zones of Inhibition (CV-1 cells; 400 ng/6.35-mm disk): 15 mm | Zones of Inhibition (CV-1 cells; 800 ng/6.35-mm disk): 22 mm | Zones of Inhibition (CV-1 cells; 1600 ng/6.35-mm disk): 22 mm | Zones of Inhibition (M. luteus; 400 ng/6.35-mm disk): 10 mm | Zones of Inhibition (M. luteus; 800 ng/6.35-mm disk): 13 mm | Zones of Inhibition (M. luteus; 1600 ng/6.35-mm disk): 15 mm | times less potent than ecteinascidins 729 and 743 (M. luteus): four to eight times less potent | Zone of inhibition (bacteria; 0.1 μg/disk): 9 mm | Zone of inhibition (bacteria; 1 μg/disk): 15 mm

Ecteinascidin 759A
Zones of Inhibition (CV-1 cells; 400 ng/6.35-mm disk): 10 mm | Zones of Inhibition (CV-1 cells; 800 ng/6.35-mm disk): 16 mm | Zones of Inhibition (CV-1 cells; 1600 ng/6.35-mm disk): 16 mm | Zones of Inhibition (M. luteus; 800 ng/6.35-mm disk): 8 mm | Zones of Inhibition (M. luteus; 1600 ng/6.35-mm disk): 10 mm | times less potent than ecteinascidins 729 and 743 (M. luteus): four to eight times less potent | Zone of inhibition (bacteria; 1 μg/disk): 9 mm

COc1cc2c(cc1OC)[C@@]1(CS[C@@H]3c4c(OC(C)=O)c(C)c5c(c4[C@H](COC1=O)N1[C@@H]3[C@H]3c4c(cc(C)c(OC)c4O)C[C@@H]([C@@H]1O)N3C)OCO5)NCC2 [Mono- -- O-methyl, Mono-O-methylecteinascidin 743]
zone of inhibition at 0.05 µg/disc (CV-1 cells): 13 mm | zone of inhibition at 0.1 µg/disc (CV-1 cells): 22 mm | zone of inhibition at 0.2 µg/disc (CV-1 cells): 20 mm | zone of inhibition at 0.4 µg/disc (CV-1 cells): 23 mm | zone of inhibition at 0.8 µg/disc (CV-1 cells): 25 mm | zone of inhibition at 1.6 µg/disc (CV-1 cells): 26 mm | zone of inhibition at 0.2 µg/disc (M. luteus; Micrococcus luteus): 8 mm | zone of inhibition at 0.4 µg/disc (M. luteus; [2]): 11 mm | zone of inhibition at 0.8 µg/disc (M. luteus; [3]): 14 mm | zone of inhibition at 1.6 µg/disc (M. luteus; [4]): 14 mm

COc1cc2c(cc1O)CCN[C@]21CS[C@@H]2c3c(OC(C)=O)c(C)c4c(c3[C@H](COC1=O)N1C[C@@H]3Cc5cc(C)c(OC)c(O)c5[C@H]([C@H]21)N3C)OCO4 [Ecteinascidin 745]
zone of inhibition at 5 µg/disc (Saccharomyces cerevisiae): 0 mm | T/C (P388 leukemia; 0.25 mg/kg, Example 6): ca. 100 | T/C (%) (P388 leukemia; 0.25 mg/kg, Table 4): 111% | antitumor activity (in words) (P388 leukemia; mouse, in vivo): greatly reduced activity | zone of inhibition at 5 µg/disc (Pseudomonas aeruginosa): 0 mm | zone of inhibition at 5 µg/disc (Mycobacterium avium): 0 mm | zone of inhibition at 5 µg/disc (Bacillus subtilis syn): 0 mm | cytotoxic activity (in words) (CV-1 cells): greatly reduced activity | zone of inhibition at 0.8 µg/disc (CV-1 cells; 800 ng/6.35-mm disk): 9 mm | zone of inhibition at 1.6 µg/disc (CV-1 cells; 1600 ng/6.35-mm disk): 14 mm | zone of inhibition at 5 µg/disc (Bacillus subtilis): 0 mm | zone of inhibition at 5 µg/disc (Escherichia coli): 0 mm | zone of inhibition at 5 µg/disc (Penicillium oxalicum): 0 mm | zone of inhibition at 5 µg/disc (Klebsiella pneumoniae): 0 mm | zone of inhibition at 5 µg/disc (Sarcina lutea sens.): 18 mm | IC90 ([1]; L1210, concentration needed to inhibit cell growth by 90 percent, in vitro, read-out: ID90 (the source's name)): 0.19 µg/mL (≈ 0.255 µM) | IC50 ([1]; L1210, read-out: ID50): 0.088 µg/mL (≈ 0.118 µM) | zone of inhibition at 5 µg/disc (Staphylococcus aureus): 0 mm | antimicrobial activity (in words) (M. luteus; dilutions accurate to within a factor of 2): greatly reduced activity | times less potent than ecteinascidins 729 and 743 (M. luteus): ~32 times | Zone of inhibition (bacteria; 20 μg/disk): trace | zone of inhibition at 40 µg/disc (bacteria; 40 μg/disk): 7 mm

COc1cc2c(cc1OC(C)=O)CCN[C@]21CS[C@@H]2c3c(OC(C)=O)c(C)c4c(c3[C@H](COC1=O)N1[C@@H]2[C@H]2c3c(cc(C)c(OC)c3O)C[C@@H]([C@@H]1O)N2C)OCO4 [Monoacetyl, Acetylecteinascidin 743]
zone of inhibition at 0.05 µg/disc (CV-1 cells; 50 ng/6.35-mm disk): 18 mm | zone of inhibition at 0.1 µg/disc (CV-1 cells; 100 ng/6.35-mm disk): 22 mm | zone of inhibition at 0.2 µg/disc (CV-1 cells; 200 ng/6.35-mm disk): 22 mm | zone of inhibition at 0.4 µg/disc (CV-1 cells; 400 ng/6.35-mm disk): 25 mm | zone of inhibition at 0.8 µg/disc (CV-1 cells; 800 ng/6.35-mm disk): 28 mm | zone of inhibition at 1.6 µg/disc (CV-1 cells; 1600 ng/6.35-mm disk): 30 mm | zone of inhibition at 0.05 µg/disc (M. luteus; Micrococcus luteus, 50 ng/6.35-mm disk): 10 mm | zone of inhibition at 0.1 µg/disc (M. luteus; Micrococcus luteus): 12 mm | zone of inhibition at 0.2 µg/disc (M. luteus; Micrococcus luteus): 14 mm | zone of inhibition at 0.4 µg/disc (M. luteus; [2]): 20 mm | zone of inhibition at 0.8 µg/disc (M. luteus; [3]): 20 mm | zone of inhibition at 1.6 µg/disc (M. luteus; [4]): 28 mm | activity relative to ecteinascidin 743 (in words) (M. luteus; relative to the original compound, antimicrobial and cytotoxic): enhanced activity over the original compound
